Measured values published in publication PMC7447632, “Highly functionalized β-lactams and 2-ketopiperazines as TRPM8 antagonists with antiallodynic activity” (Scientific Reports, 2020).
Entries after “also recorded” stand apart in the source; their conditions may differ.

Key:
[1] = system: oxaliplatin-induced cold allodynia; assay: Oxaliplatin-induced cold allodynia in mice (acetone test); format: in vivo; conditions: for Cold allodynia (cold-induced paw licking, acetone test): oxaliplatin-treated male mice
Description: Several chemotherapeutic agents in first clinical line induce peripheral neuropathies (known as CIPN), affecting million patients worldwide and limiting the dose administered to them, as well as the quality of life of many survivors. In oxaliplatin CIPN, the increased sensitivity to cold has been correlated to an augmented expression of TRPM8 channels, among others[4]–[6],[57]. In good correlation, there are recent experimental evidences describing that TRPM8 antagonists are able to decrease oxaliplatin-induced allodynia and cold hypersensitivity[34],[58]. According to these discoveries, we decided to explore the effects of β-lactam 24a in an in vivo model of oxaliplatin CIPN, using acetone assay for monitoring cold allodynia. In male mice, the injection of oxaliplatin on days 1, 3 and 5 at a 6 mg/kg dose produces peripheral cold allodynia.
Figure 4 Effects of compound 24a on the oxaliplatin-induced cold allodynia (acetone test). Male mice were treated with oxaliplatin (6 mg/Kg, ip) or vehicle on days 1, 3 and 5. Then, compound 24a (1 µg/ipl, A or 3 µg/ipl, B) was administered to the oxaliplatin treated animals, and the time-course of cold allodynia was measured. Data are given ± SME (n = 5). **P < 0.05; ***P < 0.001; ****P < 0.0001.
Male C57-mice (≈30 g) (Harlam, Holland) were used for the study. All experiments were approved by the Institutional Animal and Ethical Committee of the Universidad Miguel Hernandez where experiments were conducted and they were in accordance with the guidelines of the Economic European Community and the Committee for Research and Ethical Issues of the International Association for the Study of Pain. All parts of the study concerning animal care were performed under the control of veterinarians.
As previously described, oxaliplatin (Tocris) was dissolved in water with gentle warming and was […] injected on days 1, 3 and 5 at a 6 mg/kg dose. The day 7 after administration, experiments were performed. Together with Oxaliplatin injection, saline and a 5% Mannitol solution were intraperitoneally injected to prevent kidney damage and dehydration. The compound 24a stock was prepared in DMSO (Sigma-Aldrich) and diluted in saline for injections. Compound at different doses (1 to 3 μg) was injected into the plantar surface (25 μL) of the right hind paw of mice. Cold chemical thermal sensitivity was assessed using acetone drop method. Mice were placed in a metal mesh cage and allowed to habituate for approximately 30 min in order to acclimatize them. […] Cold chemical sensitive reaction with respect to paw licking was recorded as a positive response (nociceptive pain response). The responses were measured for 20-s with a digital stopwatch. For each measurement, the paw was sampled twice and the mean was calculated. […]

[2] = system: MDA-MB-231 (breast adenocarcinoma); assay: SRB cytotoxicity assay, MDA-MB-231; format: cell-based; conditions: at 10 µg/mL
[3] = system: HT29 (colorectal adenocarcinoma); assay: SRB cytotoxicity assay, HT29; format: cell-based; conditions: 72 h, SRB; for TGI HT29: total growth inhibition; for TGI HT29 / CC50: unit inferred; for GI50 / CC50: Homo sapiens, HT-29; for CC50: read-out: LC50 HT29
Description: Human tumor cell lines used in this study were purchased from the ATCC. A-549 (CCL-185), lung carcinoma; HT-29 (HTB-38), colorectal adenocarcinoma; MDA-MB-231 (HTB-26), breast adenocarcinoma; PSN1, pancreas adenocarcinoma.
All cell lines were maintained in DMEM (Dulbecco’s Modified Eagle's Medium) culture medium supplemented with 10% FBS (Fetal Bovine Serum), 100 Units/mL penicillin/streptomycin at 37 °C, 5% CO2 and 95% humidity.
Triplicate cultures were incubated for 72 h in the presence or absence of test compounds in dose–response curves (10 concentrations, typically ranging from 10 to 0.0026 µg/mL). A colorimetric assay using sulforhodamine B (SRB) was adapted for quantitative measurement of cell growth and cytotoxicity. A more detailed information on this assay is provides in the supplementary information. GI50 is the compound concentration that produces 50% inhibition on cell growth as compared to control cells.
In vitro bioassays for the detection of antitumor activity
The aim of this assay is to evaluate the in vitro cytostatic (ability to delay or arrest tumor cell growth) or cytotoxic (ability to kill tumor cells) activity of the samples […]
Name Nº ATCC Species Tissue Characteristics
A549 CCL-185 human lung lung carcinoma (NSCLC)
HT29 HTB-38 human colon colorectal adenocarcinoma
MDA-MB-231 HTB-26 human breast breast adenocarcinoma
PSN1 CRM-CRL-3211 human pancreas pancreas adenocarcinoma […]
A colorimetric assay, using Sulforhodamine B (SRB) reaction has been adapted to provide a quantitative measurement of cell growth and viability (following the technique described by Skehan et al. J. Natl. Cancer Inst. 1990, 82, 1107-1112 […]
This form of assay employs 96-well cell culture microplates following the standards of the American National Standards Institute and the Society for Laboratory […]
used in this study were obtained from the American Type Culture Collection (ATCC) and derive from different types of human cancer.
A549, HT29, MDA-MB-231 and PSN1 cells were maintained in Dulbecco’s
Modified Eagle Medium (DMEM) supplemented with 10% Fetal Bovine Serum (FBS), 2mM L-glutamine, 100 U/mL penicillin, and 100 U/mL streptomycin at 37 °C, 5% CO2 and 98% humidity. For the experiments, cells were harvested from subconfluent cultures using trypsinization and resuspended in fresh medium before counting and […]
A549, HT29, MDA-MB-231 and PSN1 cells were seeded in 96 well microtiter plates, at 5000 cells per well in aliquots of 150 µL, and allowed to attach to the plate surface for 18 hours (overnight) in drug free medium. After that, one control (untreated) plate of each cell line was fixed (as described below) and used for time zero reference value. Culture plates were then treated with test compounds (50 µL aliquots of 4X stock […]
solutions in complete culture medium plus 4% DMSO) using ten 2/5 serial dilutions (concentrations ranging from 10 to 0.003 µg/mL) and triplicate cultures (1% final concentration in DMSO). After 72 hours treatment, the antitumor effect was measured by using the SRB methodology: Briefly, cells were washed twice with PBS, fixed for 15 min in 1% glutaraldehyde solution at room temperature, rinsed twice in PBS, and stained in 0.4% SRB solution for 30 min at room temperature. Cells were then rinsed several times with 1% acetic acid solution and air-dried at room temperature. SRB was then extracted in 10 mM trizma base solution and the absorbance measured in an automated spectrophotometric plate reader at 490 nm.
Effects on cell growth and survival were estimated by applying the NCI algorithm (Boyd MR and Paull KD. Drug Dev. Res. 1995, 34, 91-109, DOI:10.1002/ddr.430340203). The values obtained in triplicate cultures were fitted by nonlinear regression to a four-parameters logistic curve by nonlinear regression analysis. . Using the absorbance measurements [time zero, (Tz), control growth, (C), and test growth in the presence of drug at the ten concentration levels (Ti)], the […]

Compound	Cold allodynia (cold-induced paw licking, acetone test) ([1]; 1 μg intraplantar)	Cold allodynia (cold-induced paw licking, acetone test) ([1]; 3 µg intraplantar)	Time of maximum antiallodynic activity ([1]; intraplantar, after administration)	Antiallodynic effect in oxaliplatin-induced peripheral neuropathy ([1]; mice, dose not stated)	Cytotoxic activity against MDA-MB-231 [2]	TGI HT29 [3]	GI50 [3]	CC50 [3]
C[C@@H]1C(=O)N(C[C@H](Cc2ccccc2)NC(=O)OCc2ccccc2)[C@]1(Cc1ccccc1)C(=O)OCc1ccccc1 [Compound 24a, 4S-Benzyl-4-benzyloxycarbonyl-3S-methyl-1-[(2′S-benzyloxycarbonylamino-3′-phenyl)prop-1′-yl]-2-oxoazetidine]	attenuates the cold-induced paw licking in a significant manner	clearly increased at 15 min, and firmly maintained up to 60 min	30 to 60 min	significantly reduced cold allodynia; also recorded: significant antiallodynic effects	no activity	> 17.3 µM	4.16 µM	> 17.3 µM
C[C@@H]1C(=O)N(C[C@@H](Cc2ccccc2)NC(=O)OCc2ccccc2)[C@]1(Cc1ccccc1)C(=O)OCc1ccccc1 [Compound 29a, 4S-Benzyl-4-benzyloxycarbonyl-3S-methyl-1-[(2′R-benzyloxycarbonylamino-3′-phenyl)prop-1′-yl]-2-oxoazetidine]						> 17.3 µM	7.11 µM	> 17.3 µM
